# Results reported in patent publication US9125930B2, “EGFR aptamer inhibitor for use in therapy and diagnosis” (CONSIGLIO NAZIONALE DELLE RICERCHE, priority 2010, dated 2015).
# Key:
# NIH3T3 cells = experiment: Binding on parental NIH3T3 cells; design: species or system mouse; details: [32P]-labeled aptamer at 100 nM; relative to scrambled aptamer
# Description: Human NSCLC A549, epidermoid carcinoma A431, glioma U87MG and T98G, breast SKBr3, MCF7 and T47D and mouse fibroblast NIH3T3 (all from American Type Culture Collection, Manassas, Va.) cells were grown in Dulbecco's modified Eagle medium (DMEM) supplemented with 10% fetal bovine serum (FBS) and 2 mM L-glutamine (Invitrogen, Carlsbad, Calif.). NIH3T3 cells stably transfected with human EGFR (NIH/EGFR) were grown in DMEM with 10% FBS and 2 mM L-glutamine supplemented with 50 μg/ml Gentamycin.
# (§1) Binding experiments were performed with 5′-[^32P]-labeled RNA. For labeling 2′-F-Py RNAs were 5′-end dephosphorylated using bacterial alcaline phosphatase (Invitrogen, Carlsbad, Calif.) before [^32P]-5′-end-labeled using T4 kinase (Invitrogen) and γ-[^32P]-ATP (6×10^3 Ci/mmol, GE Healthcare Bio-Sciences, Uppsala, Sweden) according to the supplier's instructions.
# (§2) For binding experiments on cells, 3.5×10^4 cells were plated in 24-well plates in triplicate and were incubated with CL4 42-81 aptamer the scrambled sequence used as a negative control at 100 nM concentration in 200 μl of DMEM serum free for 20 min at RT in the presence of 100 μg/ml polyinosine as a nonspecific competitor (Sigma, St. Louis, Mo.). After five washings with 500 μl DMEM, bound sequences were recovered in 300 μl of SDS 1%, and the amount of radioactivity recovered was counted.
# H460 cells = experiment: Binding on H460 cells; design: species or system human; details: low level of EGFR; 100 nM
# Description: as §1, §2
# glioma U87MG = experiment: Binding on U87MG cells; design: species or system human; details: no or very low expression of EGFR; 100 nM
# Description: as §1, §2
# breast MCF7 = experiment: Binding on MCF7 cells; design: species or system human; details: no or very low expression of EGFR; 100 nM
# Description: as §1, §2
# breast T47D = experiment: Binding on T47D cells; design: species or system human; details: no or very low expression of EGFR; 100 nM
# Description: as §1, §2
# glioma T98G = experiment: Binding on T98G cells; design: species or system human; details: high level of EGFR; 100 nM
# Description: as §1, §2
# Calu1 = experiment: Cell viability assay, Calu1 cells; assay type: cell-based, human; details: 200 nM-final concentration; not shown
# Description: Cell viability was assessed with CellTiter 96® AQueous One Solution Cell Proliferation Assay (Promega, Madison, Wis.) according to according to the supplier's instructions. Cells (4×10^3 cells/well) were plated in 96-well plates in triplicate. and were treated for 24 hs with heat denatured CL4 42-81 or the scrambled aptamer at 3 μM concentration. RNA concentrations were determined to ensure the continuous presence of a concentration of at least 200 nM, which takes into account the 6 hs-half life of the aptamer in 10% serum. The optical density (OD) was measured using a Multilabel Counter (Bio-Rad) at a wavelength of 490 nm and cell viability was calculated by the following formula: Cell viability (%)=(OD treated cells/OD control cells)×100%. FACS Analysis
# caspase-3 = experiment: Caspase-3 activity assay in A549 cells; assay type: cell-based, human; details: A549, 200 nM, 6 hs
# Description: A549 cells were treated with 200 nM CL4 42-81 or the scrambled aptamer for 6 hs. To determine caspase activity cell lysates (50 μg) were incubated at 37° C. for 1 h with 50 μM of a specific fluorometric substrate (Ac-DEVD-AFC for caspase-3, Ac-IETD-AFC for caspase-8, both from Alexis Bichemicals, San Diego, Calif.). Cleavage of the fluorometric substrate were determined using a Fluorometer, with excitation at 400 nm and emission at 505 nm wavelengths.
# A549 cells = experiment: [3H]-thymidine incorporation assay; assay type: cell-based, human; details: A549, 200 nM final concentration, 24 and 48 h
# Description: A549 cells were treated for 24 h or 48 h with CL4 42-81 or CL4 scrambled. During the final 6 h, cells were pulsed with 1 μCi/ml [^3H]-thymidine (45 Ci/mmol) (Amersham-Pharmacia Biosciences) added in complete growth medium and incubated at 37° C. At the end of each pulse, cells were harvested and [^3H]-thymidine incorporation was analyzed by a Beckman LS 1701 Liquid Scintillation Counter.
# A549 tumors = experiment: Tumor growth in A549 mouse xenograft; assay type: in vivo; details: day 16, with respect to CL4 scrambled control, 200 pmols intratumoral three times a week
# Description: The volume injections are small enough to preclude the compounds being forced inside the cells due to a nonspecific high-pressure injection. Tumors were measured every 3 days with calipers in three dimensions. The following formula was used to calculate tumor volume: VT=(W×L×H)×0.5236 (W, the shortest dimension; L, the longest dimension; H, the intermediate dimension). The growth curves are plotted as the means tumor volume±s.e.m. Statistical analysis of tumor size data was conducted using a one-way ANOVA. A P-value of 0.05 or less was considered to indicate a significant difference. […]
# Athymic CD-1 nude mice (nu/nu) were housed in a highly controlled microbiological environment, thus to guarantee specific pathogen free conditions. Mice were injected subcutaneously with 3×10^6 (in 100 μl) in vitro propagated A549. Sixteen non-necrotic tumors of about 0.5 cm in diameter were randomly divided into two groups of eight mice as follows: group 1, CL4 scrambled-treated; group 2, CL4 42-81-treated. Aptamers (200 pmols/injection) were injected intra-tumorally in 100-1 μl volumes three times a week for 16 days. Tumors were measured every 2 days.
substance,measurement,setting,value
"CL4 42-81: 2′-fluoropyrimidine nuclease-resistant RNA aptamer of 39 nt: 5′ GCCUUAGUAACGUGCUUUGAUGUCGAUUCGACAGGAGGC 3′ (SEQ ID No. 1) (2'-fluoro at CU, RNA at AG, backbone not given here)",binding on parental NIH3T3 cells,NIH3T3 cells,does not binding
same,binding on H460 cells,H460 cells,does not bind
same,binding on U87MG cells,glioma U87MG,does not bind
same,binding on MCF7 cells,breast MCF7,does not bind
same,binding on T47D cells,breast T47D,does not bind
same,binding on T98G cells,glioma T98G,binds
same,sensitivity of Calu1 cell viability,Calu1,same effect
same,activation of caspase-3,caspase-3,strongly induce activation
same,[3H]-thymidine incorporation,A549 cells,completely blocks
same,inhibition of tumor growth (tumor volume),A549 tumors,57%
